Test results reported in patent US11484608B2, “Non-invasive assessment of hepatic mitochondrial metabolism by positional isotopomer NMR tracer analysis (PINTA)” (YALE UNIVERSITY, priority 2017, dated 2022).

Tests used:
[1] = tested on: primary mouse hepatocytes; assay: In vitro glucose production, VPC and lipolysis in isolated hepatocytes; assay type: cell-based; conditions: for glucagon-stimulated VPC flux / glucagon-stimulated glucose production: WT hepatocytes, 100 nM glucagon, 8 hr; for effect of glucagon to stimulate intrahepatic lipolysis: isolated hepatocytes
Protocol: For in vitro glucose production and lipolysis studies, primary mouse hepatocytes were isolated by the Yale Liver Center. Following removal of cell debris by Percoll density gradient centrifugation, cells were plated on 6-well collagen-I coated dishes (4.0×10^5 cells/well) in 2 ml recovery media (DMEM High Glucose containing 10% FBS, 2% penicillin-streptomycin, 100 nM dexamethasone, 1 nM insulin, and 10 mM HEPES). After incubation for 6 hr at 37° C. and 5% CO2, the attached cells were washed once in 1×PBS and then incubated overnight in 2 ml Low Glucose Culture Media (DMEM Low Glucose supplemented with 10% FBS, 2% penicillin-streptomycin and 10 mM HEPES for glucose production studies) or Serum Free Low Glucose Culture Media (DMEM Low Glucose supplemented with 0.5% fatty acid free BSA, 2% penicillin-streptomycin and 10 mM HEPES for lipolysis assays). […] After incubation for 8 hr at 37° C. and 5% CO2, cell culture media was collected for analysis of glucose, NEFA, and glycerol concentrations as described above. VPC was determined by measuring VPC/VEGP by PINTA as described above using 300 μL of the collected media, and multiplying this ratio by the measured glucose production rate. In a subset of studies, cells were incubated for 8 hr during the glucose production assay in media containing one of the following agents (all dissolved in 0.5% DMSO), or 0.5% DMSO vehicle: 20 μM ET-18-OCH3 (Santa Cruz), 100 μM U-73122 (Sigma), 30 nM thapsigargin (Sigma), 100 nM vasopressin (Sigma) 50 μM 2-APB (R&D Systems), 70 μM caffeine (Sigma), 1 mM malic enzyme inhibitor hydroxymalonate (Sigma). To inhibit PKA, hepatocytes were incubated in H-89 […] hydrate (Sigma, 25 μM) dissolved in media, or media lacking H-89 as a control. In the insulin treatment studies, hepatocytes were incubated in 1 nM insulin with 5% BSA and glucose production media for the duration of the glucose production assay. In the in vitro atglistatin study, hepatocytes were incubated in 10 μM atglistatin in 0.1% EtOH, or 0.1% EtOH vehicle. All values were normalized to total protein content determined from whole-cell lysates by a BCA protein assay (Thermo Fisher Scientific) according to the manufacturer's instructions and expressed as fold change verses vehicle-treated cells.

CPT-1 = biological target: T1, CPT-1 (Rattus norvegicus, UniProt P32198); assay: CPT-1 inhibitor etomoxir in 0, 6, 16 and 48 hr fasted rats; assay type: in vivo
T1 construct: from tissue; host or cells: live rat, in vivo (intraperitoneal dosing); liver is the tissue discussed
T1 sequence (P32198 1-773): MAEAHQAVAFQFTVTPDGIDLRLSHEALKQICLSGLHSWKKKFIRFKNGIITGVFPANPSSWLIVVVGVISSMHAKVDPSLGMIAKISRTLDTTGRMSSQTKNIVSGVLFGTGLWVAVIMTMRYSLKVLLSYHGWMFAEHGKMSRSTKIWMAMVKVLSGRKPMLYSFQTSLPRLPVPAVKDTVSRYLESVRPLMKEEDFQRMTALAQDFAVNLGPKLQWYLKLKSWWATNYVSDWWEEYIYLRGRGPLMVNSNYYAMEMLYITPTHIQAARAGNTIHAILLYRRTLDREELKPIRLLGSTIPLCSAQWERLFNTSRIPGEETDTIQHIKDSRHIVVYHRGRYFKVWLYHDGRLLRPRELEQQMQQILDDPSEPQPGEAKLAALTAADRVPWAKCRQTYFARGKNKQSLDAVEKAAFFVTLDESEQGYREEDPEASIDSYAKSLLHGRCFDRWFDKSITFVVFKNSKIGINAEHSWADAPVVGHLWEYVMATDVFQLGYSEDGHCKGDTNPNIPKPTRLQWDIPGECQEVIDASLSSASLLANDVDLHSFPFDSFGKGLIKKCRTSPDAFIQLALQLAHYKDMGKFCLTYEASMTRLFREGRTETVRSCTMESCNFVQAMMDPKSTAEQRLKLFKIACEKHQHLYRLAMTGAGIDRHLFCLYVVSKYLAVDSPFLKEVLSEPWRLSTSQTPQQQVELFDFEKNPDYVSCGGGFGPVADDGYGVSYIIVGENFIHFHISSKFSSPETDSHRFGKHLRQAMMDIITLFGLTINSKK
Protocol: (§1) 8, 16, and 48 hr fasted rats were injected with a small molecule inhibitor of glycogen phosphorylase, 1-(3-(3-(2-Chloro-4,5-difluorobenzoyl) ureido)-4-methoxyphenyl)-3-methylurea (Sigma #361515; 5 mg/kg IV) and a tracer infusion of [2,3,3,3-^2H4]alanine ([…]prime for 5 min and […] continuous) and [3-^3H]glucose (0.3 μCi/min prime for 5 min and 0.3 μCi/min continuous) as well as [^13C4] β-hydroxybutyrate, [1,1,2,3,3-^2H5]glycerol, and [^13C16]palmitate at the rates listed in Table 9, for 120 min. Blood samples were obtained before (time zero) and 120 min after treatment with the glycogen phosphorylase inhibitor for measurement of turnover rates and plasma hormone/substrate concentrations. Hepatic acetyl-CoA content was altered by treatment with a CPT-1 inhibitor (etomoxir, 8 mg/kg) or an ATGL inhibitor (atglistatin, […]) in 0, 6, 16, and 48 hr fasted rats. Both agents were solubilized by suspending the drug in 4% ethanol/96% normal saline, heating to 60° C., and sonicating, and were cooled to room temperature before they were injected intraperitoneally. […] In these animals plasma glucose concentrations were measured every 15 minutes and a variable infusion of 20% glucose (Pfizer Hospira, Lake Forest, Ill.) was used to maintain plasma glucose concentrations ˜3.6-3.7 mM. The physiologic role of glucocorticoids was assessed in 6 and 48 hr fasted rats by treatment with a glucocorticoid receptor antagonist, mifepristone. Following a 2 hr tracer infusion at the rates described above to assess fatty acid, glycerol, glucose, and β-hydroxybutyrate turnover, rats were injected with mifepristone (40 mg/kg) IV. The tracer infusion was continued and the tracer of each of the above substrates was again measured 2 hr after treatment with mifepristone.
(§2) All whole-body substrate turnover rates were calculated using the equation Turnover=([Tracer APE/Plasma APE]−1)*Infusion rate, where APE designates the atom percent enrichment measured by mass spectrometry as described below (Biochemical Analysis). All chemicals used for flux analysis were obtained from SIGMA. Turnover of glucose, glycerol, and β-hydroxybutyrate were determined by gas chromatography-mass spectrometry (GC-MS). Briefly, both glucose and glycerol were deprotonized with 5 volumes of methanol, derivitized with 3 volumes of 1:1 acetic anhydride:pyridine, heated to 65° C. for 20 min, and 1 volume of methanol was added, then GC-MS was used in CI mode to measure glucose enrichment and EI mode to measure glycerol enrichment, with turnover calculated using the equation above. β-Hydroxybutyrate was deprotonized with 5 volumes of methanol and derivitized with 3 volumes of n-butanol 4N HCl, after which the samples were heated to 65° C. for 60 min, evaporated under N2 gas, and re-suspended in […] of trifluoroacetic acid:methylene chloride (1:7). Fatty acid turnover was measured by determining the plasma palmitate enrichment by GC-MS. Samples were prepared for measurements of palmitate enrichment by evaporating […] plasma, dissolving in […] 1:1 chloroform:methanol and derivitizing with […] boron trifluoride/methanol, then heating to 100° C. for 5 min, adding 2 mL pentane and 1 mL water, and centrifuging at low speed for 5 min. […] Alanine turnover was determined in rats infused with [2,3,3,3-^2H4]alanine by preparing samples to measure alanine enrichment by GC/MS (CI mode) using the same protocol as was employed to measure β-hydroxybutyrate enrichment.

glycogen phosphorylase = biological target: T2, glycogen phosphorylase (Rattus norvegicus, UniProt P09811); assay: Glycogen phosphorylase inhibitor in 8, 16 and 48 hr fasted rats; assay type: in vivo; conditions: for reduction in rates of endogenous glucose production: 5 mg/kg IV, 2 hr
T2 construct: from tissue; host or cells: live rat, in vivo (IV dosing); liver is the tissue discussed
T2 sequence (P09811 1-850): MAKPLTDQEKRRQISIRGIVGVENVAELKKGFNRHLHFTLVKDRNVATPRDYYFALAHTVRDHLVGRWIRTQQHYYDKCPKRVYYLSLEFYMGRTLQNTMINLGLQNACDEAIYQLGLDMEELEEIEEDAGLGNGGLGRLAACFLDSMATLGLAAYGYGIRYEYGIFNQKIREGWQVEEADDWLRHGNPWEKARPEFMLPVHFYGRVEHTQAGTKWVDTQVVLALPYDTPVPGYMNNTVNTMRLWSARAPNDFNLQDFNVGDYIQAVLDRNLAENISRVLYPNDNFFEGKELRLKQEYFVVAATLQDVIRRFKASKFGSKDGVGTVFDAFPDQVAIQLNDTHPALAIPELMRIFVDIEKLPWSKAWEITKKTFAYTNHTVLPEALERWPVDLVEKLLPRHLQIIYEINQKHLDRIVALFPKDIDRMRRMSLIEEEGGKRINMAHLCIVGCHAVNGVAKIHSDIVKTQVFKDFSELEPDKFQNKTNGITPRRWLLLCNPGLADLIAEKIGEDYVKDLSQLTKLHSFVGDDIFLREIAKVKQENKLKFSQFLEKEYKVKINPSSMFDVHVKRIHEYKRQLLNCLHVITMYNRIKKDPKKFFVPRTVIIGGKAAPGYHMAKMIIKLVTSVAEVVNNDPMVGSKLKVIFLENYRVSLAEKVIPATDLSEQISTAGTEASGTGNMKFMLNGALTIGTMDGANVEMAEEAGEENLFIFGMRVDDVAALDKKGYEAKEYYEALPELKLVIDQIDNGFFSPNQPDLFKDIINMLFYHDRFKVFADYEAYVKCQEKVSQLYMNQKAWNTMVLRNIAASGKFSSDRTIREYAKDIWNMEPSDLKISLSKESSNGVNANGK
Protocol: as §1, §2

[2] = short-term fasted rats (8 and 16 hr)

Compound: NCCOB(c1ccccc1)c1ccccc1 [2-APB, 2-aminoethoxydiphenyl borate]
- glucagon-stimulated VPC flux [1]: inhibited
- glucagon-stimulated glucose production [1]: inhibited
- effect of glucagon to stimulate intrahepatic lipolysis [1]: abrogated

Compound: CCCCCCCCCCCCCCCCCCOCC(COP(=O)([O-])OCC[N+](C)(C)C)OC (centres unmarked) [ET-18-OCH3]
- glucagon-stimulated VPC flux [1]: inhibited
- glucagon-stimulated glucose production [1]: inhibited
- effect of glucagon to stimulate intrahepatic lipolysis [1]: abrogated

Compound: COc1ccc(S(=O)(=O)N(CCO)c2ccccc2CN(C)C/C=C/c2ccc(Cl)cc2)cc1 [KN-93]
- glucagon-stimulated glucose production [1]: abrogated
- effect of glucagon to stimulate intrahepatic lipolysis [1]: abrogated

Compound: COc1ccc2c(c1)CC[C@@H]1[C@@H]2CC[C@]2(C)[C@@H](NCCCCCCN3C(=O)C=CC3=O)CC[C@@H]12 [U-73122]
- glucagon-stimulated VPC flux [1]: inhibited
- glucagon-stimulated glucose production [1]: inhibited
- effect of glucagon to stimulate intrahepatic lipolysis [1]: abrogated

Compound: Cn1c(=O)c2c(ncn2C)n(C)c1=O [caffeine]
- glucagon-stimulated VPC flux [1]: inhibited
- glucagon-stimulated glucose production [1]: inhibited
- effect of glucagon to stimulate intrahepatic lipolysis [1]: abrogated

Compound: CCOC(=O)[C@@]1(CCCCCCOc2ccc(Cl)cc2)CO1 [etomoxir]
- plasma corticosterone concentrations (CPT-1; 16- and 48-hr fasted rats): increases
- reductions in plasma leptin concentrations (CPT-1; 16- and 48-hr fasted rats): 50%
- hepatic acetyl-CoA content, hepatic gluconeogenesis, and plasma glucose and insulin concentrations (CPT-1; 16- to 48-hr fasted rats): suppressed
- WAT lipolysis (CPT-1; fasted rats): increased
- hepatic acetyl-CoA content (CPT-1; fasted rats): suppression
- plasma epinephrine or norepinephrine concentrations (CPT-1; fasted rats): no differences
- plasma lactate and hepatic malonyl-CoA concentrations (CPT-1; fasted rats): unchanged
- β-hydroxybutyrate turnover (CPT-1; fasted rats): suppression
- plasma glucose concentrations (CPT-1; fasted rats, 8 mg/kg IP, 2 hr): lowered
- plasma insulin concentrations (CPT-1; fasted rats, 8 mg/kg IP, 2 hr): lowered
- whole body glucose turnover (CPT-1; fasted rats, 8 mg/kg IP, 2 hr): lowered

Compound: CNC(=O)Nc1ccc(OC)c(NC(=O)NC(=O)c2cc(F)c(F)cc2Cl)c1 [glycogen phosphorylase inhibitor, 1-(3-(3-(2-Chloro-4,5-difluorobenzoyl)ureido)-4-methoxyphenyl)-3-methylurea]
- plasma ACTH concentrations (glycogen phosphorylase; 8- and 16-hr fasted rats): increases
- plasma corticosterone concentrations (glycogen phosphorylase; 8- and 16-hr fasted rats): increases
- plasma leptin concentrations (glycogen phosphorylase; 8- and 16-hr fasted rats): reductions
- reduction in rates of endogenous glucose production (glycogen phosphorylase; 8-hr fasted rats): 60%
- plasma FGF-21 concentrations (glycogen phosphorylase; 8 and 16-hr fasted rats): increased
- plasma glucose concentrations (glycogen phosphorylase; 8 and 16 hr fasted rats): lowered
- plasma insulin concentrations (glycogen phosphorylase; 8 and 16 hr fasted rats): lowered
- plasma lactate concentrations (glycogen phosphorylase; 8 and 16 hr fasted rats): lowered
- whole-body glucose turnover (glycogen phosphorylase; 8 and 16 hr fasted rats): lowered
- reduction in rates of endogenous glucose production (glycogen phosphorylase; 16-hr fasted rats): 30%
- plasma glucose, lactate, and insulin concentrations and whole-body glucose turnover (glycogen phosphorylase; 48-hr fasted rats): not in the 48-hr fasted rats
- rates of endogenous glucose production (glycogen phosphorylase; 48-hr fasted rats): no difference
- plasma glucagon and catecholamine concentrations (glycogen phosphorylase; fasted rats): not altered
- rates of WAT lipolysis (glycogen phosphorylase; [2]): increased
- rates of alanine turnover (glycogen phosphorylase; [2]): decreased

Compound: C/C=C(/C)C(=O)O[C@H]1C(C)=C2[C@H]([C@@H]1OC(=O)CCCCCCC)[C@@](C)(OC(C)=O)C[C@H](OC(=O)CCC)[C@@]1(O)[C@H]2OC(=O)[C@@]1(C)O [thapsigargin]
- glucagon-stimulated VPC flux [1]: inhibited
- glucagon-stimulated glucose production [1]: inhibited
- effect of glucagon to stimulate intrahepatic lipolysis [1]: abrogated

Compound: insulin
- glucose production and VPC flux ([1]; isolated hepatocytes with insulin, unaltered in InsP3R-I KO): suppress
